Assay results published in the kinase profiling compilation of Christmann-Franck et al. (2016).

Columns and labels:
Test in all cases: radiometric filter-binding kinase assay, Kinase HotSpot
Conditions in all cases: compound 0.5 µM; ATP 10 µM
[1] = target: CDK9 CCNK (human) (UniProt O75909+P50750)
[2] = target: CSK (human) (UniProt P41240)
[3] = target: MAP2K1 (human) (UniProt Q02750)
[4] = target: MAPK13 (human) (UniProt O15264)
[5] = target: WNK2 (human) (UniProt Q9Y3S1)
[6] = target: ERBB4 (human) (UniProt Q15303)
[7] = target: MYLK2 (human) (UniProt Q9H1R3)
[8] = target: DYRK1A (human) (UniProt Q13627)
[9] = target: CAMKK2 (human) (UniProt Q96RR4)
[10] = target: PKN1 (human) (UniProt Q16512)
[11] = target: MERTK (human) (UniProt Q12866)
[12] = target: MATK (human) (UniProt P42679)
[13] = target: CDK5 CDK5R1 p25 (human) (UniProt Q00535+Q15078)
[14] = target: PRKCG (human) (UniProt P05129)
[15] = target: AURKC (human) (UniProt Q9UQB9)
[16] = target: EPHA4 (human) (UniProt P54764)
[17] = target: MARK3 (human) (UniProt P27448)
[18] = target: WNK3 (human) (UniProt Q9BYP7)
[19] = target: MARK4 (human) (UniProt Q96L34)
[20] = target: BRSK1 (human) (UniProt Q8TDC3)
[21] = target: IKBKE (human) (UniProt Q14164)
[22] = target: DMPK (human) (UniProt Q09013)
[23] = target: CLK3 (human) (UniProt P49761)
[24] = target: CSNK1D (human) (UniProt P48730)
[25] = target: MAPKAPK2 (human) (UniProt P49137)
[26] = target: STK17A (human) (UniProt Q9UEE5)
[27] = target: HIPK1 (human) (UniProt Q86Z02)
[28] = target: IGF1R (human) (UniProt P08069)
[29] = target: PDPK1 (human) (UniProt O15530)
[30] = target: BMX (human) (UniProt P51813)
[31] = target: FGFR4 (human) (UniProt P22455)
[32] = target: SGK3 (human) (UniProt Q96BR1)
[33] = target: EPHA8 (human) (UniProt P29322)
[34] = target: PRKCI (human) (UniProt P41743)
[35] = target: IRAK1 (human) (UniProt P51617)
[36] = target: GSK3B (human) (UniProt P49841)
[37] = target: PASK (human) (UniProt Q96RG2)
[38] = target: NEK2 (human) (UniProt P51955)
[39] = target: EPHB3 (human) (UniProt P54753)
[40] = target: MAP2K2 (human) (UniProt P36507)
[41] = target: ABL2 (human) (UniProt P42684)
[42] = target: MAPK14 (human) (UniProt Q16539)
Sequence of MAPK14 (human) (Q16539 whole entry, looked up): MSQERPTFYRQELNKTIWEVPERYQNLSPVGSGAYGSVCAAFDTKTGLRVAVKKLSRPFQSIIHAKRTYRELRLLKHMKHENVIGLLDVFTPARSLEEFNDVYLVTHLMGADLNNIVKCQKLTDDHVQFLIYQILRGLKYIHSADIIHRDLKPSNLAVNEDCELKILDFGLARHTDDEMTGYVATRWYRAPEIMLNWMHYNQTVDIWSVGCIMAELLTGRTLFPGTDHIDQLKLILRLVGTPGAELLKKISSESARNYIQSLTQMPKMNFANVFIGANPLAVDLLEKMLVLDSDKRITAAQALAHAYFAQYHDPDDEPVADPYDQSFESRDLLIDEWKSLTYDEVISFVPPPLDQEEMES

Sequence of WNK3 (human) (Q9BYP7 whole entry, looked up): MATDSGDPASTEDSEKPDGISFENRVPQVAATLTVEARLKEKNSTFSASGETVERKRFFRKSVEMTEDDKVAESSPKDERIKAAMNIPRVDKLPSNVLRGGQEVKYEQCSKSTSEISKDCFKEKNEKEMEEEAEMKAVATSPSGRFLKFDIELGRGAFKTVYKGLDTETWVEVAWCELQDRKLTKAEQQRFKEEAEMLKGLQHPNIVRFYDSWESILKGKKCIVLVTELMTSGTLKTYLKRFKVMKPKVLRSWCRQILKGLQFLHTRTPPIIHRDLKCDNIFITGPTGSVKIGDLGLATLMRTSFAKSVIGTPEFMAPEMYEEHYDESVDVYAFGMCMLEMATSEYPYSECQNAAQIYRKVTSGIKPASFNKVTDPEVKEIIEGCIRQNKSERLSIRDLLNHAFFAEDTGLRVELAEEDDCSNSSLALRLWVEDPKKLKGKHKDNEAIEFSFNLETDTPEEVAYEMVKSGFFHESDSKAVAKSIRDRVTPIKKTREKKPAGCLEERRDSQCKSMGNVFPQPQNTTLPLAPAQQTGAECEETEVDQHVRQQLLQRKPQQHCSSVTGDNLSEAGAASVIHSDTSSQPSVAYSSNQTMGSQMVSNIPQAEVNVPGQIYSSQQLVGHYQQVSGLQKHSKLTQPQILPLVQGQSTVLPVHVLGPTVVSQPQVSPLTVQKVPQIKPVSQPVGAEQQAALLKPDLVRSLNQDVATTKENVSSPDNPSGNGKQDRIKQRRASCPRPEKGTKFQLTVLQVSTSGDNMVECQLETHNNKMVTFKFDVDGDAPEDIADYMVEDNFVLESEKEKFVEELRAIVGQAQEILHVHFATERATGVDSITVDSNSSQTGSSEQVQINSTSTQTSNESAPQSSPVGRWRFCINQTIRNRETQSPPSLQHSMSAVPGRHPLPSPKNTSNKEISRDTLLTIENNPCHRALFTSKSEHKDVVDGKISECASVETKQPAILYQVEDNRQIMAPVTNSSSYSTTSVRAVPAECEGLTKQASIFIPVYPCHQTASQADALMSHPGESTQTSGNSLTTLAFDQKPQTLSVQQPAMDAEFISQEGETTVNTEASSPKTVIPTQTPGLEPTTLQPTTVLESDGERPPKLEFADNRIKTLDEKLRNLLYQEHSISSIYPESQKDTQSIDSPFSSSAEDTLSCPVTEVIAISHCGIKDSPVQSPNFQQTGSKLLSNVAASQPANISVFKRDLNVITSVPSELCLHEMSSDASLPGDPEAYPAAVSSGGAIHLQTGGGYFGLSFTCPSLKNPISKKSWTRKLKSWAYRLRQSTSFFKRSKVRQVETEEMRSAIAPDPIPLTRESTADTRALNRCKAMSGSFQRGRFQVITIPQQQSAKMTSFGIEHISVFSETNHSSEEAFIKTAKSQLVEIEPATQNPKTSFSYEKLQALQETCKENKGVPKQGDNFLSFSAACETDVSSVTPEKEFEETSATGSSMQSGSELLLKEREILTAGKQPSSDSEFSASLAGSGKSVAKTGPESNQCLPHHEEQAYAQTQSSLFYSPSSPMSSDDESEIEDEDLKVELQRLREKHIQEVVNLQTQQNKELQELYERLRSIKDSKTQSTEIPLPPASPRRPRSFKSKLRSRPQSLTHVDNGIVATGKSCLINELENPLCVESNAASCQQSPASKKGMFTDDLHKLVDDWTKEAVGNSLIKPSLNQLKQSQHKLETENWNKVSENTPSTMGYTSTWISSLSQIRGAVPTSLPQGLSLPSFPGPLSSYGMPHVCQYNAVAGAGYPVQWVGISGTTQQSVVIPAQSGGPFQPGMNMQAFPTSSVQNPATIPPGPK
Sequence of MAPK13 (human) (O15264 whole entry, looked up): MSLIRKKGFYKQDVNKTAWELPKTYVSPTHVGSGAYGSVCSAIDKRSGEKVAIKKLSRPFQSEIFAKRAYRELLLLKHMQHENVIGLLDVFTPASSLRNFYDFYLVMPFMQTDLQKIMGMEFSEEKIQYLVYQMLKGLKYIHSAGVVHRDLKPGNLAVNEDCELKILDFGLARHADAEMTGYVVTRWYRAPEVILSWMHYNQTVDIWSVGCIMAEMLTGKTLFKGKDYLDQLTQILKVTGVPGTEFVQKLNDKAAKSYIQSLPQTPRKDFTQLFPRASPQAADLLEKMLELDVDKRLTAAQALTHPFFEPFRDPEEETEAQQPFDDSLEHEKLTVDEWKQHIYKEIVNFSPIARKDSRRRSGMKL
Sequence of GSK3B (human) (P49841 whole entry, looked up): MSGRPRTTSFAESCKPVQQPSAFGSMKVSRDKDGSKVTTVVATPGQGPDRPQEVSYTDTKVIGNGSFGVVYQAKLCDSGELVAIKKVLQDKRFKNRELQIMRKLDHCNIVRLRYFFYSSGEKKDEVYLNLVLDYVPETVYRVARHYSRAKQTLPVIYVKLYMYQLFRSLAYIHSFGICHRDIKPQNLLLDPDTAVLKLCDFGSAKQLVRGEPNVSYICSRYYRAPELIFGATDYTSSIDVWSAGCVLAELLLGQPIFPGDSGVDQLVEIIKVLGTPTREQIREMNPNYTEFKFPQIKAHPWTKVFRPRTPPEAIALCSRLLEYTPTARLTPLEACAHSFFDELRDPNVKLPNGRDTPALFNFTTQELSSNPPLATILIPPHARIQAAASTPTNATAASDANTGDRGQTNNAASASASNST
Sequence of EPHA4 (human) (P54764 whole entry, looked up): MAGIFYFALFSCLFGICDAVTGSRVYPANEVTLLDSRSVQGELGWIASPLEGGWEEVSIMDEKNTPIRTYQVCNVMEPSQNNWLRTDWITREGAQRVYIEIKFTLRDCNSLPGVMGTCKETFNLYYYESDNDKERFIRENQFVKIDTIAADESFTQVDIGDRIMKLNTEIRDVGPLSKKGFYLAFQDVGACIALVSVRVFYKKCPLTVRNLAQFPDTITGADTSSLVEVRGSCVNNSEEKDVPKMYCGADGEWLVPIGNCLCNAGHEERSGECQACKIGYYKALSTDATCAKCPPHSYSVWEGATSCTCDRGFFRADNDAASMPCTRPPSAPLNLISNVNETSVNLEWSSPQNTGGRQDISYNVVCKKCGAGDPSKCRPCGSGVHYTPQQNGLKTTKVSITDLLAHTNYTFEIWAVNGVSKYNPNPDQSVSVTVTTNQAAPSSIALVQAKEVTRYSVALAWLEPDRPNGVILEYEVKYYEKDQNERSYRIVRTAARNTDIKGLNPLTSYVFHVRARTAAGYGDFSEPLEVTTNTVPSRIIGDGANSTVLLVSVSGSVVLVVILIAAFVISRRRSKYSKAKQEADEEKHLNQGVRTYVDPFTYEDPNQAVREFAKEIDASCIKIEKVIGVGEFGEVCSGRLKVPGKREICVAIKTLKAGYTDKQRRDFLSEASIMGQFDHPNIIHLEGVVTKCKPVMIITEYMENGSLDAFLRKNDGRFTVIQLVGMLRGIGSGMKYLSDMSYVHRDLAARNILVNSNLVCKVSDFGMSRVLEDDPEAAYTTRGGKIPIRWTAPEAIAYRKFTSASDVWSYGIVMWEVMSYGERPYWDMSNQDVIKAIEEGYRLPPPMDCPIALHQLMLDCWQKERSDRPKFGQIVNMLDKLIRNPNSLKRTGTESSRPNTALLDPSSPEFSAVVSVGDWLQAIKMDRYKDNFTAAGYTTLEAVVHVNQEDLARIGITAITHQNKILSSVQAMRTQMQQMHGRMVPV
Sequence of STK17A (human) (Q9UEE5 whole entry, looked up): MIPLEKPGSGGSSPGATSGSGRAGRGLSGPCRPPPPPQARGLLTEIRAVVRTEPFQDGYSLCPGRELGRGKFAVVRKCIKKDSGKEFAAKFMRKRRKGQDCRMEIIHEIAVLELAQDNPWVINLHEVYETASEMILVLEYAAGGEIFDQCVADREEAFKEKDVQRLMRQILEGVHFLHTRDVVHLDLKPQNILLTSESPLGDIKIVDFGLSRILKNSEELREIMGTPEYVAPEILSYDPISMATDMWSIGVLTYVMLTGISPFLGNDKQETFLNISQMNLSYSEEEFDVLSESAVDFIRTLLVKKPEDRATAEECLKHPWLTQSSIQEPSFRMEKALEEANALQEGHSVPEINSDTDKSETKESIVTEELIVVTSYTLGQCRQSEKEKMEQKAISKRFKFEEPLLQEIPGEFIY
Sequence of IKBKE (human) (Q14164 whole entry, looked up): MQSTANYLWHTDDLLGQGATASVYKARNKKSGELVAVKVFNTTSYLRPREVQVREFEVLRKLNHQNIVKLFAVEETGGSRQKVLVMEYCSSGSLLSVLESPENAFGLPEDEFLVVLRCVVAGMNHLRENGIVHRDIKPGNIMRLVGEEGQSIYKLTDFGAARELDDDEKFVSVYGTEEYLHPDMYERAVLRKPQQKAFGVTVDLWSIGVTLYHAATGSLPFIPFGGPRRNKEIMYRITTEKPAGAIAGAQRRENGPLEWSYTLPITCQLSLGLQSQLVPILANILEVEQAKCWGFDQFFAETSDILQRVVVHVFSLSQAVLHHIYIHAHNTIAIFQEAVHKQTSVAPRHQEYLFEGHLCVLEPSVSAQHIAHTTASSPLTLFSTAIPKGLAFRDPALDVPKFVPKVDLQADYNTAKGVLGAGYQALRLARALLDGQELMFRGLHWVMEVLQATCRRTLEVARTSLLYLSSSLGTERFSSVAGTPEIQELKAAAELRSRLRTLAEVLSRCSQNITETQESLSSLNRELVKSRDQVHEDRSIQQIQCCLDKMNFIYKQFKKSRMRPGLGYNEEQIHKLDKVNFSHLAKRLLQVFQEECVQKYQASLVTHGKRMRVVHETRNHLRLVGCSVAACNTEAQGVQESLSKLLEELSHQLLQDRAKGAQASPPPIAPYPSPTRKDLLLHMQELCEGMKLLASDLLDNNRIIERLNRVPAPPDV

For `NC(=O)c1ccc(N(C(N)=O)c2c(F)cccc2F)nc1-c1ccc(F)cc1F`, the residual activity [1] was 106%, the residual activity [2] was 90% and the residual activity [3] was 89%. For the same molecule, the residual activity [4] was 94%, the residual activity [5] was 96.4% and the residual activity [6] was 98.1%. The residual activity [7] was 101%, the residual activity [8] was 98.7% and the residual activity [9] was 101%. It also gave a residual activity [10] of 101%, a residual activity [11] of 114% and a residual activity [12] of 77.6%. It also gave a residual activity [13] of 95.9%, a residual activity [14] of 91.3% and a residual activity [15] of 83.8%. For the same molecule, the residual activity [16] was 105%, the residual activity [17] was 98.1% and the residual activity [18] was 96.6%. The residual activity [19] was 102%, the residual activity [20] was 94.2% and the residual activity [21] was 88%. It also gave a residual activity [22] of 104%, a residual activity [23] of 112% and a residual activity [24] of 89.8%. For the same molecule, the residual activity [25] was 98.9%, the residual activity [26] was 100% and the residual activity [27] was 100%. For the same molecule, the residual activity [28] was 92.3%, the residual activity [29] was 87.4% and the residual activity [30] was 108%. It also gave a residual activity [31] of 96.2%, a residual activity [32] of 99.9% and a residual activity [33] of 98.7%. It also gave a residual activity [34] of 99.1%, a residual activity [35] of 94.2% and a residual activity [36] of 101%. The residual activity [37] was 103%, the residual activity [38] was 109% and the residual activity [39] was 65.8%. For the same molecule, the residual activity [40] was 92.3%, the residual activity [41] was 100% and the residual activity [42] was 5.23%.
For `CC(C)n1cnc2c(Nc3cccc(Cl)c3)nc(NCCO)nc21`, the residual activity [1] was 86.9%, the residual activity [2] was 98.2% and the residual activity [3] was 92.8%. It also gave a residual activity [4] of 99%, a residual activity [5] of 93.6% and a residual activity [6] of 101%. The residual activity [7] was 96.3%, the residual activity [8] was 88.6% and the residual activity [9] was 68.2%. For the same molecule, the residual activity [10] was 101%, the residual activity [11] was 89.7% and the residual activity [12] was 93.3%. It also gave a residual activity [13] of 26.2%, a residual activity [14] of 93.6% and a residual activity [15] of 92.1%. The residual activity [16] was 87.5%, the residual activity [17] was 92.3% and the residual activity [18] was 77.7%. The residual activity [19] was 88.1%, the residual activity [20] was 93.1% and the residual activity [21] was 97.6%. The residual activity [22] was 98.5%, the residual activity [23] was 77.8% and the residual activity [24] was 48.5%. For the same molecule, the residual activity [25] was 98.9%, the residual activity [26] was 96.8% and the residual activity [27] was 99.8%. The residual activity [28] was 90%, the residual activity [29] was 96.8% and the residual activity [30] was 92.5%. It also gave a residual activity [31] of 86.5%, a residual activity [32] of 97.1% and a residual activity [33] of 98.2%. For the same molecule, the residual activity [34] was 101%, the residual activity [35] was 101% and the residual activity [36] was 96%. For the same molecule, the residual activity [37] was 92.7%, the residual activity [38] was 97.6% and the residual activity [39] was 119%. It also gave a residual activity [40] of 97.6%, a residual activity [41] of 60.7% and a residual activity [42] of 90.7%.
`O=C1Nc2ccccc2/C1=C\c1c(Cl)[nH]c2ccccc12` gave a residual activity [1] of 98.3%, a residual activity [2] of 101% and a residual activity [3] of 84.8%. It also gave a residual activity [4] of 98.9%, a residual activity [5] of 93.4% and a residual activity [6] of 103%. The residual activity [7] was 94.6%, the residual activity [8] was 107% and the residual activity [9] was 97.8%. It also gave a residual activity [10] of 94.6%, a residual activity [11] of 88.2% and a residual activity [12] of 89.5%. The residual activity [13] was 86%, the residual activity [14] was 89.2% and the residual activity [15] was 89.5%. For the same molecule, the residual activity [16] was 93.4%, the residual activity [17] was 104% and the residual activity [18] was 101%. For the same molecule, the residual activity [19] was 106%, the residual activity [20] was 91.9% and the residual activity [21] was 98%. It also gave a residual activity [22] of 101%, a residual activity [23] of 102% and a residual activity [24] of 90.5%. It also gave a residual activity [25] of 101%, a residual activity [26] of 95.2% and a residual activity [27] of 100%. The residual activity [28] was 105%, the residual activity [29] was 94.3% and the residual activity [30] was 99.8%. For the same molecule, the residual activity [31] was 96.9%, the residual activity [32] was 102% and the residual activity [33] was 103%. The residual activity [34] was 99.2%, the residual activity [35] was 89.5% and the residual activity [36] was 105%. The residual activity [37] was 89.3%, the residual activity [38] was 99% and the residual activity [39] was 91.3%. The residual activity [40] was 98.7%, the residual activity [41] was 91.4% and the residual activity [42] was 101%.
